The source of these data is patent US5627199A, “6-heterocyclic-4-amino-1,2,2A,3,4,5-hexahydrobenz [CD] indoles” (ELi Lilly and Company, priority 1995, dated 1997).

One experiment deals with 5-HT1D receptor. Kind of experiment: 5-HT1D receptor in vitro binding ([3H]5-HT, bovine caudate membranes). The settings on record: inhibition of [3H]5-HT (1.7-1.9 nM) binding by 50%, 8-OH-DPAT and mesulergine (100 nM each) as masks, pH 7.4, 10 min at 37° C. As to the method:
The affinities of certain of the compounds of Formula 1 at the central 5-HT1D binding sites were determined using a modification of the binding assay described by Heuring and Peroutka, J. Neurosci., 7, 894 (1987). Bovine brains were obtained and the caudate nuclei were dissected out and frozen at -70° C. until the time that the membranes were prepared for the binding assays. At that time the tissues were homogenized in 40 volumes of ice-cold Tris-HCl buffer (50 mM, pH 7.4 at 22° C.) with a Techmar Tissumizer (setting 65 for 15 sec), and the homogenate was centrifuged at 39,800× g for 10 minutes. The resulting pellet was then resuspended in the same buffer, and the centrifugation and resuspension process was repeated three additional times to wash the membranes. Between the second and third washes the resuspended membranes were incubated for 10 minutes at 37° C. to facilitate the removal of endogenous 5-HT. The final pellet was resuspended in the buffer to a concentration of 25 mg of original tissue wet weight/ml for use in the binding assay. […] The assay tubes were incubated for 10 minutes at 37° C. and the contents were then rapidly filtered through GF/B filters (pretreated with 0.5% polyethylenimine), followed by four 1 ml washes with ice-cold buffer. The radioactivity trapped by the filters was quantitated by liquid scintillation spectrometry, and specific [^3 H]5-HT binding to the 5-HT1D sites was defined as the difference between [^3 H]5-HT bound in the presence and absence of 10 μM 5-HT.
In Table 2, the first column provides the Example Number of the compound evaluated while the second column provides the amount of test compound (expressed in nanomolar concentration) required to inhibit the binding of [^3 H]5-HT by 50% (indicated as IC50).

A further experiment addresses T1, 5-HT1A receptor (Rattus norvegicus, UniProt P19327).
T1 construct: the brains were rapidly chilled and dissected to obtain the hippocampi; from tissue; host or cells: hippocampal membranes of male Sprague-Dawley rats
T1 sequence (P19327 1-422): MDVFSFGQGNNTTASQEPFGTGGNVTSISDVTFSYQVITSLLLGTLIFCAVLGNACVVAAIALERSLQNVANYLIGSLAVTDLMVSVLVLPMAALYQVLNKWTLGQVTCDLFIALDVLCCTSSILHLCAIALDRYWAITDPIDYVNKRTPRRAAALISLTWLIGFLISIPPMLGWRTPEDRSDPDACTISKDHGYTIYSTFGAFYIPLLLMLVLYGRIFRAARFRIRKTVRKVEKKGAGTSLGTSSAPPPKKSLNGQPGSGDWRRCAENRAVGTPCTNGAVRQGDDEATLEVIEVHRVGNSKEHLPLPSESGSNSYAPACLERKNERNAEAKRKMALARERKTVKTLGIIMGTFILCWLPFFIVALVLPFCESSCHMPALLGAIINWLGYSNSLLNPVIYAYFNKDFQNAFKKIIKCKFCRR
Kind of experiment: 5-HT1A receptor in vitro binding ([3H]8-OH-DPAT, rat hippocampal membranes). Also on record: species or system male Sprague-Dawley rats. The conditions noted are these: inhibition of [3H]8-OH-DPAT (1.0 nM) binding by 50%, pH 7.4, 10 min at 37° C. As to the method:
The affinities of certain of the compounds of Formula 1 at the central 5-HT1A receptors were determined using a modification of the binding assay described by Taylor et al., J. Pharmacol. Exp. Ther. 236, 118-125 (1986). Membranes for the binding assay were prepared from male Sprague-Dawley rats (150-250 g). The animals were killed by decapitation, and the brains were rapidly chilled and dissected to obtain the hippocampi. Membranes from the hippocampi were either prepared that day, or the hippocampi were stored frozen (-70° C.) until the day of preparation. The membranes were prepared by homogenizing the tissue in 40 volumes of ice-cold Tris-HCl buffer (50 mM, pH 7.4 at 22° C.) using a Techmar Tissumizer (setting 65 for 15 sec), and the homogenate was centrifuged at 39800× g for 10 minutes. The resulting pellet was then resuspended in the same buffer, and the centrifugation and resuspension process was repeated three additional times to wash the membranes. Between the second and third washes the resuspended membranes were incubated for 10 minutes at 37° C. to facilitate the removal of endogenous ligands. The final pellet was resuspended in 67 mM Tris-HCl, pH 7.4, to a concentration of 2 mg of tissue original wet weight/200 μl. This homogenate was stored frozen (-70° C.) until the day of the binding assay. […] The assay tubes were incubated for 10 minutes at 37° C. and the contents were then rapidly filtered through GF/B filters (pretreated with 0.5% polyethylenimine), followed by four 1 ml washes with ice-cold buffer. The radioactivity trapped by the filters was quantitated by liquid scintillation spectrometry, and specific [^3 H]8-OH-DPAT binding to the 5-HT1A sites was defined as the difference between [^3 H]8-OH-DPAT bound in the presence and absence of 10 μM 5-HT.
In Table 1, the first column provides the Example Number of the compound evaluated while the second column provides the amount of test compound (expressed in nanomolar concentration) required to inhibit the binding of [^3 H]8-OH-DPAT by 50% (indicated as IC50).

Counter-ions that a name gives are not always drawn.

The term IC50 denotes the concentration needed to halve the response being measured. On to `CCCN(CCC)[C@@H]1Cc2c(-c3ccco3)ccc3c2[C@H](CN3)C1` [Example 13, (-)(2aR,4S)-6-(2-furyl)-4-(di-n-propylamino)-1,2,2a,3,4,5-hexahydrobenz[cd]indole], for which the IC50 is 1890 nM at 5-HT1D receptor and 21.1 nM at 5-HT1A receptor.

As for `CCCN(CCC)[C@H]1Cc2c(-c3ccno3)ccc3c2[C@@H](CN3)C1` [Example 10, (+)(2aS, 4R)-6-(5-isoxazolyl)-4-(di-n-propylamino)-1,2,2a,3,4,5-hexahydrobenz[cd]indole.2 HCl], the results for the IC50 at 5-HT1D receptor and on 5-HT1A receptor were 11.2 nM and 0.73 nM, respectively. Regarding `CCCN(CCC)[C@@H]1Cc2c(-c3ccno3)ccc3c2[C@H](CN3)C1` [Example 11, (-)(2aR,4S)-6-(5-isoxazolyl)-4-(di-n-propylamino)-1,2,2a,3,4,5-hexahydrobenz[cd]indole.2 HCl], the IC50 on 5-HT1D receptor came out at 1380 nM; at 5-HT1A receptor, 2.08 nM. Regarding `CCCN(CCC)[C@H]1Cc2c(-c3ccon3)ccc3c2[C@@H](CN3)C1` [Example 8, (+)(2aS,4R)-6-(3-isoxazolyl)-4-(di-n-propylamino)-1,2,2a,3,4,5-hexahydrobenz[cd]indole.2 HCl], the IC50 came to 9.12 nM at 5-HT1D receptor and 0.91 nM at 5-HT1A receptor.

For `CCCN(CCC)[C@H]1Cc2c(-c3cccnc3)ccc3c2[C@@H](CN3)C1` [Example 18, (+)(2aS,4R)-6-(3-pyridyl)-4-(di-n-propylamino)-1,2,2a,3,4,5-hexahydrobenz[cd]indole], the IC50 stood at 40.3 nM on 5-HT1D receptor and 1.92 nM on 5-HT1A receptor. As for `CCCN(CCC)C1Cc2c(-c3ccno3)ccc3c2C(CN3)C1` (racemic) [Example 7, (±)-6-(5-isoxazolyl)-4-(di-n-propylamino)-1,2,2a,3,4,5-hexahydrobenz[cd]indole.2HCl], the IC50 on 5-HT1D receptor turned out to be 23.6 nM; at 5-HT1A receptor, 1.95 nM. Regarding `CCCN(CCC)[C@@H]1Cc2c(-c3nc(-c4ccccc4)no3)ccc3c2[C@H](CN3)C1` [Example 12, (2aR,4S)-6-(3-phenyl-1,2,4-oxadiazol-5-yl)-4-(di-n-propylamino)-1,2,2a,3,4,5-hexahydrobenz[cd]indole], the IC50 at 5-HT1A receptor came out at 105 nM. As to `CCCN(CCC)[C@H]1Cc2c(-c3ccco3)ccc3c2[C@@H](CN3)C1` [Example 14, (+)(2aS,4R)-6-(2-furyl)-4-(di-n-propylamino)-1,2,2a,3,4,5-hexahydrobenz[cd]indole], the values for the IC50 on 5-HT1D receptor and on 5-HT1A receptor were 43.1 nM and 5.3 nM, respectively. On to `CCCN(CCC)[C@H]1Cc2c(-c3ccoc3)ccc3c2[C@@H](CN3)C1` [Example 15, (+)(2aS,4R)-6-(3-furyl)-4-(di-n-propylamino)-1,2,2a,3,4,5-hexahydrobenz[cd]indole], for which the values for the IC50 on 5-HT1D receptor and on 5-HT1A receptor were 19.4 nM and 2.74 nM, respectively. `CCCN(CCC)[C@H]1Cc2c(-c3cc[nH]n3)ccc3c2[C@@H](CN3)C1` [Example 6, (+)(2aS,4R)-6-(3-pyrazolyl)-4-(di-n-propylamino)-1,2,2a,3,4,5-hexahydrobenz[cd]indole.2HCL]: the IC50 was 30 nM at 5-HT1D receptor and 6.37 nM at 5-HT1A receptor. As to `CCCN(CCC)[C@H]1Cc2c(-c3ccccn3)ccc3c2[C@@H](CN3)C1` [Example 17, (+)(2aS, 4R)-6-(2-pyridyl)-4-(di-n-propylamino)-1,2,2a,3,4,5-hexahydrobenz[cd]indol], the results for the IC50 at 5-HT1D receptor and on 5-HT1A receptor were 163 nM and 17.3 nM, respectively.
